In patent US20240383852A1, “ANTI-VIRAL COMPOUNDS” (INFEX Therapeutics Limited, priority 2021, published 2024):
Counter-ions that a name gives are not always drawn. Like-named read-outs stand apart in the source and are kept apart here.

What was measured:
SARS-CoV-2 PLpro = molecular target: T1, SARS-CoV-2 PLpro (Severe acute respiratory syndrome coronavirus 2, UniProt P0DTD1); assay: biochemical
T1 construct: containing 60 nM papain-like protease

SARS-CoV-2 = assay: Anti-viral potency in VERO E6 cells (cytopathic viral activity, crystal violet); assay type: cell-based; conditions: Severe acute respiratory syndrome coronavirus 2, Vero C1008, 48 h, read-out: SARS-COV-2 EC50 (μM)
[1] = test system: human Hep G2 cells (ATCC HB-8065); assay: Cytotoxicity in Hep G2 cells (CellTiter-Glo); assay type: cell-based
[2] = 60 nM papain-like protease, 50 μM Z-RLRGG-AMC, pH 7.5, 37° C., read-out: SARS-CoV-2 PLpro IC50
[3] = Hep G2 cells, 100 μM test article, 24-hour exposure

Structure (SMILES)	IC50 (SARS-CoV-2 PLpro; [2]) [µM]	EC50 (SARS-CoV-2) [µM]	% Cell Viability [1, 3] [%]	IC50 (SARS-CoV-2 PLpro) [µM]	% Cell Viability ([1]; human, 24 h, 100 μM) [%]
COCCOc1ccc([C@@H](C)NC(=O)c2cc(N3CCN(C)CC3)ccc2C)cc1-c1cnn(C)c1 [Example 280, N-[(1R)-1-[4-(2-Methoxyethoxy)-3-(1-methylpyrazol-4-yl)phenyl]ethyl]-2-methyl-5-(4-methylpiperazin-1-yl)benzamide]	< 2	< 5	76.7	–	–
COc1ccc([C@@H](C)NC(=O)c2cc(N3CCN(C)CC3)ccc2C)cc1OCC1CC1 [Example 296, N-[(1R)-1-[3-(Cyclopropylmethoxy)-4-methoxy-phenyl]ethyl]-2-methyl-5-(4-methylpiperazin-1-yl)benzamide]	< 2	< 15	76.1	–	–
COc1cc(-c2cn(C)nc2C)cc([C@@H](C)NC(=O)c2cc(N3C[C@H]4C[C@@H]3CN4C)ccc2C)c1 [Example 230, N-[(1R)-1-[3-(1,3-Dimethylpyrazol-4-yl)-5-methoxy-phenyl]ethyl]-2-methyl-5-[(1R,4R)-5-methyl-2,5-diazabicyclo[2.2.1]heptan-2-yl]benzamide]	< 2	< 5	38.3	–	–
CCn1cc(-c2cccc([C@@H](C)NC(=O)c3cc(N4CCN(C)CC4)ccc3C)c2)cn1 [Example 64, N-[(1R)-1-[3-(1-Ethylpyrazol-4-yl)phenyl]ethyl]-2-methyl-5-(4-methylpiperazin-1-yl)benzamide]	< 2	< 5	78.6	–	–
COc1ccc([C@@H](C)NC(=O)c2cc(N3C[C@H]4CC[C@@H](C3)N4)ccc2C)cc1-c1cnn(C)c1 [Example 266, 5-[(1S,5R)-3,8-Diazabicyclo[3.2.1]octan-3-yl]-N-[(1R)-1-[4-methoxy-3-(1-methylpyrazol-4-yl)phenyl]ethyl]-2-methyl-benzamide hydrochloride salt]	–	< 5	–	< 2	61.1
COc1ccc([C@@H](C)NC(=O)c2cc(C3CCN(C)CC3)ccc2C)cc1-c1cnn(C)c1 [Example 300, N-[(1R)-1-[4-Methoxy-3-(1-methylpyrazol-4-yl)phenyl]ethyl]-2-methyl-5-(1-methyl-4-piperidyl)benzamide]	< 2	< 5	74.7	–	–
COc1cc(-c2cnn(C)c2)cc([C@@H](C)NC(=O)c2cc(N3CCNCC3)ccc2C)c1 [Example 235, N-[(1R)-1-[3-Methoxy-5-(1-methylpyrazol-4-yl)phenyl]ethyl]-2-methyl-5-piperazin-1-yl-benzamide]	< 2	< 5	90.6	–	–
COc1ccc([C@@H](C)NC(=O)c2cc(N3CCN(C)CC3)ccc2C)cc1-c1cn(C)nc1C [Example 212, N-[(1R)-1-[3-(1,3-Dimethylpyrazol-4-yl)-4-methoxy-phenyl]ethyl]-2-methyl-5-(4-methylpiperazin-1-yl)benzamide]	< 2	< 5	96.8	–	–
COc1ccc([C@@H](C)NC(=O)c2cc(N3CCNCC3)ccc2C)cc1-c1cnn(C)c1 [Example 260, N-[(1R)-1-[4-Methoxy-3-(1-methylpyrazol-4-yl)phenyl]ethyl]-2-methyl-5-piperazin-1-yl-benzamide]	< 2	< 15	91.1	–	–
Cc1ccc(N2CCN(C)CC2)cc1C(=O)N[C@H](C)c1ccc(Cl)c(-c2cnn(C)c2)c1 [Example 252, N-[(1R)-1-[4-Chloro-3-(1-methylpyrazol-4-yl)phenyl]ethyl]-2-methyl-5-(4-methylpiperazin-1-yl)benzamide]	< 2	< 5	49.4	–	–
COc1cc(-c2cn(C)nc2C)cc([C@@H](C)NC(=O)c2cc(N3CCN(C)CC3)ccc2C)c1 [Example 233, N-[(1R)-1-[3-(1,3-Dimethylpyrazol-4-yl)-5-methoxy-phenyl]ethyl]-2-methyl-5-(4-methylpiperazin-1-yl)benzamide]	< 2	< 5	88.9	–	–
Cc1ccc(N2CCN(C)CC2)cc1C(=O)N[C@H](C)c1cccc(-c2cc(C(=O)N(C)C)n(C)c2)c1 [Example 102, N,N,1-Trimethyl-4-[3-[(1R)-1-[[2-methyl-5-(4-methylpiperazin-1-yl)benzoyl]amino]ethyl]phenyl]pyrrole-2-carboxamide]	< 2	< 5	75.9	–	–
COc1ccc([C@@H](C)NC(=O)c2cc(N3CCN(C)CC3)ccc2C)cc1-c1nccs1 [Example 251, N-[(1R)-1-(4-Methoxy-3-thiazol-2-yl-phenyl)ethyl]-2-methyl-5-(4-methylpiperazin-1-yl)benzamide]	< 2	< 5	63.2	–	–
COc1cc(-c2cc(C(=O)N(C)C)n(C)c2)cc([C@@H](C)NC(=O)c2cc(N3CCN(C)CC3)ccc2C)c1 [Example 289, 4-[3-Methoxy-5-[(1R)-1-[[2-methyl-5-(4-methylpiperazin-1-yl)benzoyl]amino]ethyl]phenyl]-N,N,1-trimethyl-pyrrole-2-carboxamide]	< 2	< 5	59.5	–	–
Cc1ccc(N2CCN(C)CC2)cc1C(=O)N[C@H](C)c1ccc(F)c(-c2cnn(C)c2)c1 [Example 217, N-[(1R)-1-[4-Fluoro-3-(1-methylpyrazol-4-yl)phenyl]ethyl]-2-methyl-5-(4-methylpiperazin-1-yl)benzamide]	< 2	< 5	61.7	–	–
COc1ccc([C@@H](C)NC(=O)c2cc(N3C[C@H]4C[C@@H]3CN4C)ccc2C)cc1-c1cnn(C)c1 [Example 227, N-[(1R)-1-[4-Methoxy-3-(1-methylpyrazol-4-yl)phenyl]ethyl]-2-methyl-5-[(1R,4R)-5-methyl-2,5-diazabicyclo[2.2.1]heptan-2-yl]benzamide]	< 2	< 5	89.9	–	–
COc1ccc([C@@H](C)NC(=O)c2cc(N3CC4CN(C)CC4C3)ccc2C)cc1OC (stereo partly drawn) [Example 9, N-[(1R)-1-(3,4-Dimethoxyphenyl)ethyl]-2-methyl-5-(2-methyl-1,3,3a,4,6,6a-hexahydropyrrolo[3,4-c]pyrrol-5-yl)benzamide]	< 5	< 15	96.5	–	–
COc1ccc([C@@H](C)NC(=O)c2cc(N3CCN(C)CC3)ccc2C)cc1-c1cnn(C)c1 [Example 205, N-[(1R)-1-[4-Methoxy-3-(1-methylpyrazol-4-yl)phenyl]ethyl]-2-methyl-5-(4-methylpiperazin-1-yl)benzamide]	< 2	< 5	105.8	–	–
